Results taken from the kinase profiling compilation of Christmann-Franck et al. (2016).

Key:
Details in all cases: compound 10.0 µM
[1] = biological target: ABL1 (human) (UniProt P00519)
[2] = biological target: BTK (human) (UniProt Q06187)
[3] = biological target: CAMK1 (human) (UniProt Q14012)
[4] = biological target: CDC42BPB (human) (UniProt Q9Y5S2)
[5] = biological target: CDK2 CCNE1 (human) (UniProt P24864+P24941)
[6] = biological target: CDK3 CCNE1 (human) (UniProt P24864+Q00526)
[7] = biological target: CSNK1E (human) (UniProt P49674)
Chain of CSNK1E (human) (P49674 whole entry, looked up): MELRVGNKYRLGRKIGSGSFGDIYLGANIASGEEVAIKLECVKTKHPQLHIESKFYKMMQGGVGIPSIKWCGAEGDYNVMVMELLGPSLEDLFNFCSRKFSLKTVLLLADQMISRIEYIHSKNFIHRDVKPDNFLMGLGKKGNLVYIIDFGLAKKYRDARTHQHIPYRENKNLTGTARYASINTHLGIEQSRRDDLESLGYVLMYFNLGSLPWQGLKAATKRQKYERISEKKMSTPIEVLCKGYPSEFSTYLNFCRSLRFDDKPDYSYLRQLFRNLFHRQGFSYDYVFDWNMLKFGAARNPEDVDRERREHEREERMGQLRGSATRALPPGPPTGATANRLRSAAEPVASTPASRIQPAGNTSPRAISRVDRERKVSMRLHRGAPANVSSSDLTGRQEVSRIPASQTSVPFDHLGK

[8] = biological target: CSNK2A2 (human) (UniProt P19784)
Chain of CSNK2A2 (human) (P19784 whole entry, looked up): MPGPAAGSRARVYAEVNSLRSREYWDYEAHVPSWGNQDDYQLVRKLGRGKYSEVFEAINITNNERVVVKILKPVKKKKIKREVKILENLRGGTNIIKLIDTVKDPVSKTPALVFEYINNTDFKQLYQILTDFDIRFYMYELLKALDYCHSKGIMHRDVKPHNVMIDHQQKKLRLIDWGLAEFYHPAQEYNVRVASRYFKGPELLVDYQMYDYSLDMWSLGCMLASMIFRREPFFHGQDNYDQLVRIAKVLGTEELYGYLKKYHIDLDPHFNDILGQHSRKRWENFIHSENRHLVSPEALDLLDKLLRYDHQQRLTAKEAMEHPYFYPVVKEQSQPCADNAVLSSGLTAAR

[9] = biological target: DAPK1 (human) (UniProt P53355)
[10] = biological target: DYRK1A (human) (UniProt Q13627)
[11] = biological target: DYRK1B (human) (UniProt Q9Y463)
[12] = biological target: DYRK4 (human) (UniProt Q9NR20)
[13] = biological target: EPHA5 (human) (UniProt P54756)
[14] = biological target: EPHA8 (human) (UniProt P29322)
[15] = biological target: EPHB4 (human) (UniProt P54760)
Chain of EPHB4 (human) (P54760 whole entry, looked up): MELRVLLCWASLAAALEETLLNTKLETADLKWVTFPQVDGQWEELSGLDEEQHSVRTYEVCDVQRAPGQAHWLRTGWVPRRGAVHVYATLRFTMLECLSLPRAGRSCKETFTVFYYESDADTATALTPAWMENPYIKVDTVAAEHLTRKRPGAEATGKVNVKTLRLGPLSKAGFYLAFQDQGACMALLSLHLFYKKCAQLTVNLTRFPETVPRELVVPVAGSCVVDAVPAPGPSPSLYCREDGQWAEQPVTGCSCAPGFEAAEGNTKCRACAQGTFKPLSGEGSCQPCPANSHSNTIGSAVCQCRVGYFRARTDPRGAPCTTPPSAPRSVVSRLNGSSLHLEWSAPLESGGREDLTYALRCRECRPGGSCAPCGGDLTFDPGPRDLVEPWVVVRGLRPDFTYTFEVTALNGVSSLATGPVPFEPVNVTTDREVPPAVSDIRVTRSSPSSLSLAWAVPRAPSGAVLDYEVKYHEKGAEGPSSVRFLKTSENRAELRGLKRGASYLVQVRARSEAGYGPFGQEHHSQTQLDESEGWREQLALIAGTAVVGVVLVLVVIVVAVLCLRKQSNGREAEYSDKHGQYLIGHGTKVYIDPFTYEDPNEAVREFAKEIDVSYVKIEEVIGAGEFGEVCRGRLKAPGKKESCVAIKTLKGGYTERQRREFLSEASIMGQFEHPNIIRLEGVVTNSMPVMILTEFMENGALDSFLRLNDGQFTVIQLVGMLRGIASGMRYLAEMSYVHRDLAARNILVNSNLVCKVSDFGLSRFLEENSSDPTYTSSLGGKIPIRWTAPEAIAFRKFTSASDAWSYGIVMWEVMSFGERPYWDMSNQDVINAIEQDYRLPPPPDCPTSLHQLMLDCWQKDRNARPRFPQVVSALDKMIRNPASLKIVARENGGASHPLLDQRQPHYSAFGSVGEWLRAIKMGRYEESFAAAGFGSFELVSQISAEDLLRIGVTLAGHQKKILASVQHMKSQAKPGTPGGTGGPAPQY

[16] = biological target: FRK (human) (UniProt P42685)
[17] = biological target: GRK7 (human) (UniProt Q8WTQ7)
[18] = biological target: HIPK1 (human) (UniProt Q86Z02)
Chain of HIPK1 (human) (Q86Z02 whole entry, looked up): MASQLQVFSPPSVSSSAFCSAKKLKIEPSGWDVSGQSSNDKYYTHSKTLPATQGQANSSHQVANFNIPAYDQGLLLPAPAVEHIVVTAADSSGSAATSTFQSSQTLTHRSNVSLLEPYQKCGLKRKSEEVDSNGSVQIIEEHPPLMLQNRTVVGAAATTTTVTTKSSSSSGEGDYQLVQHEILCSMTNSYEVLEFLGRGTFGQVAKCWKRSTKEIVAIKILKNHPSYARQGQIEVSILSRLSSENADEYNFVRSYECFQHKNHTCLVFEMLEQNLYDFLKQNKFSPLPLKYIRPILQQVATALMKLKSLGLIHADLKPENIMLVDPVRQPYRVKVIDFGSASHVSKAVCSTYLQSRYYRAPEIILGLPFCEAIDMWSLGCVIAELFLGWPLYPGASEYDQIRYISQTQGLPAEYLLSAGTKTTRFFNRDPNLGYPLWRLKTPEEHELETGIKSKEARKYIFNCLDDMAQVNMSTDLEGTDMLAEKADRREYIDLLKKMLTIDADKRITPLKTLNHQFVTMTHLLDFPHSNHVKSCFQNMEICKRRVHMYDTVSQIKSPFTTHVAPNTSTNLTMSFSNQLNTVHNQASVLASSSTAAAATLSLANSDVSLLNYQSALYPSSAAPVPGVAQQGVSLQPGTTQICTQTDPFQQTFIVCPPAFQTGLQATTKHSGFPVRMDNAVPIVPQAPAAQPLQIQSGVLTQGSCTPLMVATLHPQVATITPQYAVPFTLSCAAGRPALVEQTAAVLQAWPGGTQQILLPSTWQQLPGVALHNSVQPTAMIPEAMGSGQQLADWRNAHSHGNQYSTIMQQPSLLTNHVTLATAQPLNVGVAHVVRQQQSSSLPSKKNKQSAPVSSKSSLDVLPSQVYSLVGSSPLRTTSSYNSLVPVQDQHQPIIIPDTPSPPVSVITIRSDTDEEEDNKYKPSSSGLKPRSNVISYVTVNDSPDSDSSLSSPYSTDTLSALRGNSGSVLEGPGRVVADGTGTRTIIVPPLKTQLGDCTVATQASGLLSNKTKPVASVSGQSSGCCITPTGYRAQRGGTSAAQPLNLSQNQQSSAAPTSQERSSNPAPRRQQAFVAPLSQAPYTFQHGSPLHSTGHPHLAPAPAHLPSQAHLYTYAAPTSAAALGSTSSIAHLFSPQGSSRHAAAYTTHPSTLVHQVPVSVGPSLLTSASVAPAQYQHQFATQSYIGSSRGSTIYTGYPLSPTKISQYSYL

[19] = biological target: HIPK2 (human) (UniProt Q9H2X6)
[20] = biological target: HIPK3 (human) (UniProt Q9H422)
[21] = biological target: IKBKE (human) (UniProt Q14164)
[22] = tested on: LYN (human), P07948 [23-43 del]
[23] = biological target: MAPK1 (human) (UniProt P28482)
[24] = biological target: MAPKAPK2 (human) (UniProt P49137)
[25] = biological target: MUSK (human) (UniProt O15146)
[26] = biological target: MYLK (human) (UniProt Q15746)
[27] = biological target: NEK1 (human) (UniProt Q96PY6)
[28] = biological target: NEK2 (human) (UniProt P51955)
[29] = biological target: PASK (human) (UniProt Q96RG2)
[30] = biological target: PLK2 (human) (UniProt Q9NYY3)
Chain of PLK2 (human) (Q9NYY3 whole entry, looked up): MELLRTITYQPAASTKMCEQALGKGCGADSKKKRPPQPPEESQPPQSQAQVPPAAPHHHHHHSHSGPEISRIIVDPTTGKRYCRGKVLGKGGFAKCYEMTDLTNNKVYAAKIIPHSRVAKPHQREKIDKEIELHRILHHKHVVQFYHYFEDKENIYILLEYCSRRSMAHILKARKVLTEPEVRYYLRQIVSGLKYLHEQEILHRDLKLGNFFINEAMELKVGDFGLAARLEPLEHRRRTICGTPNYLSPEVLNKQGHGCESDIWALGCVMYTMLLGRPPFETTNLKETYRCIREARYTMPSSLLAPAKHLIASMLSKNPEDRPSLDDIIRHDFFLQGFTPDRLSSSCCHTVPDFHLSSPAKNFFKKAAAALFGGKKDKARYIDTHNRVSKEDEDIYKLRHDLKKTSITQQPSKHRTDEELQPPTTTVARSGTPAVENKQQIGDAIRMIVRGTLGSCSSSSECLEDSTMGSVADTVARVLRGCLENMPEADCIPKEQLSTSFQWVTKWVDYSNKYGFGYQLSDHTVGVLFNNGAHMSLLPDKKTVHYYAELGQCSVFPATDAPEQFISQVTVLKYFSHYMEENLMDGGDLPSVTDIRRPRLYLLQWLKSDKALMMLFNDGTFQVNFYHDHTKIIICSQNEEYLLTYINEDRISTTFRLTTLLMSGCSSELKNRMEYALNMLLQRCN

[31] = biological target: PRKACA (human) (UniProt P17612)
[32] = biological target: PRKCE (human) (UniProt Q02156)
[33] = biological target: PRKCH (human) (UniProt P24723)
[34] = biological target: PTK6 (human) (UniProt Q13882)
[35] = biological target: RAF1 (human) (UniProt P04049)
Chain of RAF1 (human) (P04049 whole entry, looked up): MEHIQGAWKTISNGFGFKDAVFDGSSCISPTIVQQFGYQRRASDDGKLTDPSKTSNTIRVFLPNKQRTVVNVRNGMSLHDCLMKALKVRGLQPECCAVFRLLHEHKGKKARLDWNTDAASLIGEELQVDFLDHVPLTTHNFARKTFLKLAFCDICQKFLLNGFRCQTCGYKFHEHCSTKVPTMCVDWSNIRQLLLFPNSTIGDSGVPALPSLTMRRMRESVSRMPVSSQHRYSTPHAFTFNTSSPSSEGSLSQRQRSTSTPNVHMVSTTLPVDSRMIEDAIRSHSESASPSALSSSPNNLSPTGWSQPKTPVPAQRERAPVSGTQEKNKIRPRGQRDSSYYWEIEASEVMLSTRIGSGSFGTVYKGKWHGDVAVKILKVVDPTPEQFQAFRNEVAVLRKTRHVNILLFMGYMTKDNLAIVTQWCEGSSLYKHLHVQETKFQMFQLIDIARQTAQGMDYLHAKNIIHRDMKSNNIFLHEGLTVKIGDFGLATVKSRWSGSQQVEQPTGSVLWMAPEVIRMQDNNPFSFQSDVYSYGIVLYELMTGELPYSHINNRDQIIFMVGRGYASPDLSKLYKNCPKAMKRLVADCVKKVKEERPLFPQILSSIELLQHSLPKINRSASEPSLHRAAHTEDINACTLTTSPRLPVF

[36] = biological target: ROCK1 (human) (UniProt Q13464)
[37] = biological target: ROS1 (human) (UniProt P08922)
[38] = biological target: RPS6KA1 KD1 KD2 (human) (UniProt Q15418)
[39] = biological target: RPS6KA2 KD1 KD2 (human) (UniProt Q15349)
[40] = biological target: STK11 (human) (UniProt Q15831)
[41] = biological target: STK17A (human) (UniProt Q9UEE5)
Chain of STK17A (human) (Q9UEE5 whole entry, looked up): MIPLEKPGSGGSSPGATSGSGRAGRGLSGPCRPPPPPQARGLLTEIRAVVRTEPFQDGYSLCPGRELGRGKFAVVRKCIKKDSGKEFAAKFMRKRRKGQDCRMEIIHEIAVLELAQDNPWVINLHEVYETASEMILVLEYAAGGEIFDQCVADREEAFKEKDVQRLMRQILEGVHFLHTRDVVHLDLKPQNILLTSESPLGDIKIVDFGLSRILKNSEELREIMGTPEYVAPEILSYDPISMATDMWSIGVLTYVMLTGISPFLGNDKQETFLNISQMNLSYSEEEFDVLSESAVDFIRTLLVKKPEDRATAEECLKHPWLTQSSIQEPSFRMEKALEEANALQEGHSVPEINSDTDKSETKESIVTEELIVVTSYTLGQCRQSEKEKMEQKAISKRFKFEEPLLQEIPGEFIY

[42] = biological target: TEK (human) (UniProt Q02763)
[43] = biological target: TTK (human) (UniProt P33981)
[44] = biological target: WNK2 (human) (UniProt Q9Y3S1)

residual activity [1]: 84% | residual activity [2]: 103% | residual activity [3]: 54% | residual activity [4]: 101% | residual activity [5]: 96% | residual activity [6]: 105% | residual activity [7]: 94.5% | residual activity [8]: 76.5% | residual activity [9]: 96.5% | residual activity [10]: 95% | residual activity [11]: 90.5% | residual activity [12]: 98.5% | residual activity [13]: 77% | residual activity [14]: 89% | residual activity [15]: 95% | residual activity [16]: 97% | residual activity [17]: 97.5% | residual activity [18]: 99% | residual activity [19]: 90% | residual activity [20]: 100% | residual activity [21]: 94.5% | residual activity [22]: 92% | residual activity [23]: 95% | residual activity [24]: 99% | residual activity [25]: 104% | residual activity [26]: 96% | residual activity [27]: 96.5% | residual activity [28]: 103% | residual activity [29]: 90.5% | residual activity [30]: 93.5% | residual activity [31]: 102% | residual activity [32]: 99.5% | residual activity [33]: 103% | residual activity [34]: 93% | residual activity [35]: 97% | residual activity [36]: 96% | residual activity [37]: 110% | residual activity [38]: 76% | residual activity [39]: 92% | residual activity [40]: 106% | residual activity [41]: 96.5% | residual activity [42]: 95.5% | residual activity [43]: 102% | residual activity [44]: 93%
SMILES: CC[C@H](C)n1cc(C)c2c(C(=O)NCc3c(C)cc(C)[nH]c3=O)cc(-c3ccc(N4CCNCC4)nc3)cc21
